Data: the supplement of paper PMC10307832

Columns and labels:
Test in all cases: relative viability (nuclei count vs DMSO), 5 days (fraction); higher = more cells survive
[1] = compound: CO[C@@H]1[C@H](N(C)C(=O)c2ccccc2)C[C@H]2O[C@]1(C)n1c3ccccc3c3c4c(c5c6ccccc6n2c5c31)C(=O)NC4 [Midostaurin] + CC(=O)c1c(C)c2cnc(Nc3ccc(N4CCNCC4)cn3)nc2n(C2CCCC2)c1=O [Palbociclib] (partner 0.5 µM)
Outline: (§1)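 Nuclei were stained with Hoechst during a one-step fixation (final 0.05% Triton X-100, 1% formaldehyde, 1 ug/ml Hoechst) carried out 5 days after dosing, then counted on 4× images. The cells, lung cancer lines in 1536-well plates, had been dosed by pin tool the day after seeding with one drug alone or a fixed anchor-drug dose plus five library-drug doses (not always all listed) in √10 steps. Relative viability is the nuclei count in treated wells divided by that in vehicle wells, and each value is the median of duplicate plates.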

Midostaurin + Alpelisib = compound: CO[C@@H]1[C@H](N(C)C(=O)c2ccccc2)C[C@H]2O[C@]1(C)n1c3ccccc3c3c4c(c5c6ccccc6n2c5c31)C(=O)NC4 [Midostaurin] + Cc1nc(NC(=O)N2CCC[C@H]2C(N)=O)sc1-c1ccnc(C(C)(C)C(F)(F)F)c1 [Alpelisib] (partner 2 µM)
Outline: as §1

Midostaurin + AZD7762 = compound: CO[C@@H]1[C@H](N(C)C(=O)c2ccccc2)C[C@H]2O[C@]1(C)n1c3ccccc3c3c4c(c5c6ccccc6n2c5c31)C(=O)NC4 [Midostaurin] + NC(=O)Nc1cc(-c2cccc(F)c2)sc1C(=O)N[C@H]1CCCNC1 [AZD7762] (partner 0.2 µM)
Outline: as §1

[2] = compound: COc1cc(-c2nn([C@H]3CC[C@H](N4CCN(C(C)=O)CC4)CC3)c3ncnc(N)c23)ccc1NC(=O)c1cc2ccccc2n1C + C[C@@H](Oc1cc(-c2cnn(C3CCNCC3)c2)cnc1N)c1c(Cl)ccc(F)c1Cl [Crizotinib] (partner 1 µM)
Outline: as §1

[3] = compound: COc1cc(-c2nn([C@H]3CC[C@H](N4CCN(C(C)=O)CC4)CC3)c3ncnc(N)c23)ccc1NC(=O)c1cc2ccccc2n1C + Nc1ncn([C@H]2C[C@H](O)[C@@H](CO)O2)c(=O)n1 [Decitabine] (partner 2 µM)
Outline: as §1

| Cell Line | relative viability ([1]; first compound 0.01 µM) | relative viability ([1]; first compound 0.03162 µM) | relative viability ([1]; first compound 0.1 µM) | relative viability ([1]; first compound 0.3162 µM) | relative viability (Midostaurin + Alpelisib; first compound 0.01 µM) | relative viability (Midostaurin + Alpelisib; first compound 0.03162 µM) | relative viability (Midostaurin + Alpelisib; first compound 0.1 µM) | relative viability (Midostaurin + Alpelisib; first compound 0.3162 µM) | relative viability (Midostaurin + AZD7762; first compound 0.01 µM) | relative viability (Midostaurin + AZD7762; first compound 0.03162 µM) | relative viability (Midostaurin + AZD7762; first compound 0.1 µM) | relative viability (Midostaurin + AZD7762; first compound 0.3162 µM) | relative viability ([2]; first compound 0.0128 µM) | relative viability ([2]; first compound 0.04048 µM) | relative viability ([2]; first compound 0.128 µM) | relative viability ([2]; first compound 1.28 µM) | relative viability ([3]; first compound 0.0128 µM) | relative viability ([3]; first compound 0.04048 µM) | relative viability ([3]; first compound 0.128 µM) | relative viability ([3]; first compound 1.28 µM) |
| --- | --- | --- | --- | --- | --- | --- | --- | --- | --- | --- | --- | --- | --- | --- | --- | --- | --- | --- | --- | --- |
| LU99A | 0.386 | 0.513 | 0.371 | 0.386 | 0.437 | 0.457 | 0.396 | 0.387 | 0.29 | 0.441 | 0.303 | 0.255 | 0.629 | 0.522 | 0.545 | 0.696 | 0.808 | 0.601 | 0.949 | 0.994 |
| ABC-1 | 0.709 | 1.01 | 0.679 | 0.559 | 1.05 | 0.879 | 0.816 | 0.897 | 0.844 | 0.824 | 0.729 |  | 1.01 | 0.98 | 0.87 | 0.766 | 1.19 | 1.03 | 0.835 | 0.998 |
| NCI-H2170 | 0.394 | 0.397 | 0.406 | 0.454 | 0.828 | 0.856 | 0.722 | 0.707 | 0.891 | 0.85 | 0.866 | 1.14 | 1.3 | 1.13 | 1.2 | 0.923 | 0.533 | 0.53 | 0.479 | 0.471 |
| NCI-H2347 | 0.442 | 0.449 | 0.395 | 0.404 | 0.995 | 0.988 | 0.964 | 0.992 | 0.799 | 0.774 | 0.712 | 0.587 | 0.795 | 0.751 | 0.797 | 0.736 | 0.618 | 0.612 | 0.57 | 0.639 |
| NCI-H1993 | 0.495 | 0.802 | 0.794 | 0.656 | 0.714 | 0.657 | 0.675 | 0.643 | 0.762 | 0.77 | 0.699 | 0.5 | 0.925 | 0.902 | 0.803 | 0.645 | 0.632 | 0.575 | 0.681 | 0.617 |
| NCI-H322M | 0.475 | 0.483 | 0.528 | 0.559 | 0.836 | 0.686 | 0.882 | 0.807 | 0.504 | 0.703 | 0.533 | 0.582 | 0.999 | 0.871 | 0.767 | 0.878 | 0.659 | 0.682 | 0.648 | 0.63 |
| NCI-H838 | 0.237 | 0.229 | 0.251 | 0.185 | 1.02 | 0.772 | 0.865 | 0.407 | 0.843 | 0.892 | 0.848 | 0.865 | 0.809 | 0.854 | 0.759 | 0.534 | 0.484 | 0.505 | 0.518 | 0.432 |
| HARA | 0.316 | 0.283 | 0.278 | 0.242 | 0.794 | 0.795 | 0.724 | 0.864 | 0.301 | 0.475 | 0.394 | 0.299 | 1.02 | 1.1 | 0.914 | 0.623 | 0.609 | 0.699 | 0.612 | 0.381 |
| NCI-H2087 | 0.213 | 0.232 | 0.268 | 0.27 | 1.2 | 0.978 | 1.05 | 1.06 | 1.39 | 1.16 | 1.36 | 1.03 | 1.1 | 1 | 0.703 | 0.947 | 0.331 |  | 0.198 | 0.225 |
| NCI-H1437 | 0.353 | 0.326 | 0.34 | 0.367 | 1.06 | 0.995 | 0.96 | 0.986 | 1.14 | 1.1 | 1.06 | 1.11 | 1.06 | 0.877 | 0.922 | 0.846 | 0.576 | 0.6 | 0.558 | 0.599 |
| NCI-H1792 | 0.593 | 0.709 | 0.635 | 0.634 | 0.703 | 0.672 | 0.63 | 0.654 | 0.786 | 0.725 | 0.67 | 0.176 | 0.958 | 1.01 | 0.88 | 0.896 | 0.566 | 0.504 | 0.532 | 0.598 |
| NCI-H650 | 0.347 | 0.34 | 0.318 | 0.313 | 1.04 | 1.07 | 1.11 | 0.63 | 1.01 | 1.04 | 0.942 | 1.11 | 0.665 | 0.716 | 0.603 | 0.739 | 0.319 | 0.35 | 0.304 | 0.306 |
| LK-2 | 0.595 | 0.692 | 0.701 | 0.861 | 1.09 | 1.48 | 1.11 | 1.05 | 0.494 | 0.408 | 0.346 | 0.679 | 0.215 | 0.259 | 0.187 | 0.199 | 0.339 | 0.253 | 0.288 | 0.248 |
| 201T | 0.366 | 0.368 | 0.35 | 0.406 | 1.04 | 1.01 | 1.02 | 1.08 | 0.509 | 0.687 | 0.595 | 0.66 | 1.02 | 1.05 | 0.941 | 0.815 | 0.929 | 0.919 | 0.809 | 0.615 |
| HCC-44 | 1.01 | 1.02 | 0.942 | 0.99 | 0.831 | 0.837 | 0.761 | 0.607 | 0.961 | 0.978 | 0.998 | 0.986 | 0.931 | 0.825 | 0.847 | 1.06 | 1.13 | 0.979 | 0.846 | 1.04 |
